Usually IC50 stands for the midpoint of a concentration-inhibition curve. A lower IC50 goes with inhibition by little substance.

The results in this text go back to paper PMC4774911, “Biochemical Screening of Five Protein Kinases from Plasmodium falciparum against 14,000 Cell-Active Compounds” (PLoS ONE, 2016).

Molecules are shown by their SMILES. Where “and” joins values, the source holds several entries; their conditions need not be identical. Equal entries are not always repeated.

Among the targets are PIM2 (Homo sapiens, UniProt Q9P1W9); CABC1 (Homo sapiens, UniProt Q8NI60); DYRK1A (Homo sapiens, UniProt Q13627); AAK1 (Homo sapiens, UniProt Q2M2I8); BUB1 (Homo sapiens, UniProt O43683).
What all share (assay): biochemical
For a further assay, the target named is T1, MAP3K2 (Homo sapiens, UniProt Q9Y2U5).
T1 sequence (Q9Y2U5 1-619): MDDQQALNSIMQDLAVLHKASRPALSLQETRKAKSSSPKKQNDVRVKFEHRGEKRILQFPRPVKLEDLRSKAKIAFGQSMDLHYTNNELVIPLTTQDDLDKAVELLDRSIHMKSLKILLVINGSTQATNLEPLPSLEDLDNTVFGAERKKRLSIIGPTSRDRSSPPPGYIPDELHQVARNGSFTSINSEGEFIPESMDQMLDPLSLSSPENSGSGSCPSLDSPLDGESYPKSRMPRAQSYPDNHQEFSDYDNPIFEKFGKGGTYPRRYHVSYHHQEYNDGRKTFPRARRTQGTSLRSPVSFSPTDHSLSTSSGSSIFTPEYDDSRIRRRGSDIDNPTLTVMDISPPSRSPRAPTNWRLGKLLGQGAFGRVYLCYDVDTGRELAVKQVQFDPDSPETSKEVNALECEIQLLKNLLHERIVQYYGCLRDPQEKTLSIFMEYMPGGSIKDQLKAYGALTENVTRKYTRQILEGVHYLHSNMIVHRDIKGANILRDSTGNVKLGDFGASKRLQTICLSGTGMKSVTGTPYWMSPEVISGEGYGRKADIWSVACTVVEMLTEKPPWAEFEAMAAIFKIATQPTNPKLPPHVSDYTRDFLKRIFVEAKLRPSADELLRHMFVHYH

Another assay addresses T2, AXL (Homo sapiens, UniProt P30530).
T2 sequence (P30530 1-894): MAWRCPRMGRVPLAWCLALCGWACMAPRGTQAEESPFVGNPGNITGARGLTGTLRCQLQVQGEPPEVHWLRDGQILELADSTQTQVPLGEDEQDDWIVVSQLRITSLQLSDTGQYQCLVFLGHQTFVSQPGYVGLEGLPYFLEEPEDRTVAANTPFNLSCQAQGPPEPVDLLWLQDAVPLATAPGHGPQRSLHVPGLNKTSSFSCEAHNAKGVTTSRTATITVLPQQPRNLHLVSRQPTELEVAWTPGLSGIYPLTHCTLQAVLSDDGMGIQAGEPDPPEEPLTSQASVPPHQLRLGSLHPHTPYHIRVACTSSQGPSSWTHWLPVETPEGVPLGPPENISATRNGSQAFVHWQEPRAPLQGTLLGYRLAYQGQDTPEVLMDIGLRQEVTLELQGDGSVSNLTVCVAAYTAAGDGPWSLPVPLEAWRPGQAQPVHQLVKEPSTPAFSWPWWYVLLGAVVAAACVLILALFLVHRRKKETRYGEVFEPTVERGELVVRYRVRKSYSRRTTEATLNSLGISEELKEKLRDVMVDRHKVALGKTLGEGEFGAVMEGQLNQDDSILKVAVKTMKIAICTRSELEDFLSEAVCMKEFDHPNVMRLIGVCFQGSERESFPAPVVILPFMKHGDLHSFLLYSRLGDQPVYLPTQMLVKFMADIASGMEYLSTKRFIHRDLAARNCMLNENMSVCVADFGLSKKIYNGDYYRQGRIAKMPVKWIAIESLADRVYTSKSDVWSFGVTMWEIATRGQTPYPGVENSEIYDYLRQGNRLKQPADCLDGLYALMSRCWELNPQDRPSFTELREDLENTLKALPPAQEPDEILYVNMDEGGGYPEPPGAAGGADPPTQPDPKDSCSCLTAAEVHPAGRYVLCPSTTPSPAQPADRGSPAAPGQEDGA

In the next assay the target is T3, MAP3K7 (Homo sapiens, UniProt O43318).
T3 sequence (O43318 1-606): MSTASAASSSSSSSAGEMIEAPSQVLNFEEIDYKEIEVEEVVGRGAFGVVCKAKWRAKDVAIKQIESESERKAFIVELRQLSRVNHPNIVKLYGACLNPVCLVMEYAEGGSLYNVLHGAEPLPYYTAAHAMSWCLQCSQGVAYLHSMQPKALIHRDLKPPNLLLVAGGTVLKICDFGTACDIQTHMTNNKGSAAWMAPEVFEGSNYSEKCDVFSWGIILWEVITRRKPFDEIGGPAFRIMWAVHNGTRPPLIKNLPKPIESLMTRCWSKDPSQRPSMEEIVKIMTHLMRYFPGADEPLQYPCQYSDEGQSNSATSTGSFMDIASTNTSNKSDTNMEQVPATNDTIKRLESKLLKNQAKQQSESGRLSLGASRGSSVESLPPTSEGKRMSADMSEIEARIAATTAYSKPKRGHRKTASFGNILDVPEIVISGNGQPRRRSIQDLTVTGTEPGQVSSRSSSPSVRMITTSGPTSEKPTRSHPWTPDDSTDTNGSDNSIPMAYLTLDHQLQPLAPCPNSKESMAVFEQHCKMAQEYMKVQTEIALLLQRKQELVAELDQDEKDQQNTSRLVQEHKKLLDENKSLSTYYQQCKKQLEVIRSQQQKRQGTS

Another assay concerns the target T4, AURKA (Homo sapiens, UniProt O14965).
T4 sequence (O14965 1-403): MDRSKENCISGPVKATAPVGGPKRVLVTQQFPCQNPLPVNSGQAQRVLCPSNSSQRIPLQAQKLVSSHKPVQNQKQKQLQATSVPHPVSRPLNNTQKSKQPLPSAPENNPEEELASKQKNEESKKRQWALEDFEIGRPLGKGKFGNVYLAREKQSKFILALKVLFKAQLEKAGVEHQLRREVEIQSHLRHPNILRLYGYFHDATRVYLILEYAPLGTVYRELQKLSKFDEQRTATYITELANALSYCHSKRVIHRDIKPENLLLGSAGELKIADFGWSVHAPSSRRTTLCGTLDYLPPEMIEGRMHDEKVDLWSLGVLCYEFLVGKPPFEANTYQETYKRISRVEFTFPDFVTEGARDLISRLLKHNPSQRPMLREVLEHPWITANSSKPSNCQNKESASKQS

AAK1, sequence (Q2M2I8 whole entry): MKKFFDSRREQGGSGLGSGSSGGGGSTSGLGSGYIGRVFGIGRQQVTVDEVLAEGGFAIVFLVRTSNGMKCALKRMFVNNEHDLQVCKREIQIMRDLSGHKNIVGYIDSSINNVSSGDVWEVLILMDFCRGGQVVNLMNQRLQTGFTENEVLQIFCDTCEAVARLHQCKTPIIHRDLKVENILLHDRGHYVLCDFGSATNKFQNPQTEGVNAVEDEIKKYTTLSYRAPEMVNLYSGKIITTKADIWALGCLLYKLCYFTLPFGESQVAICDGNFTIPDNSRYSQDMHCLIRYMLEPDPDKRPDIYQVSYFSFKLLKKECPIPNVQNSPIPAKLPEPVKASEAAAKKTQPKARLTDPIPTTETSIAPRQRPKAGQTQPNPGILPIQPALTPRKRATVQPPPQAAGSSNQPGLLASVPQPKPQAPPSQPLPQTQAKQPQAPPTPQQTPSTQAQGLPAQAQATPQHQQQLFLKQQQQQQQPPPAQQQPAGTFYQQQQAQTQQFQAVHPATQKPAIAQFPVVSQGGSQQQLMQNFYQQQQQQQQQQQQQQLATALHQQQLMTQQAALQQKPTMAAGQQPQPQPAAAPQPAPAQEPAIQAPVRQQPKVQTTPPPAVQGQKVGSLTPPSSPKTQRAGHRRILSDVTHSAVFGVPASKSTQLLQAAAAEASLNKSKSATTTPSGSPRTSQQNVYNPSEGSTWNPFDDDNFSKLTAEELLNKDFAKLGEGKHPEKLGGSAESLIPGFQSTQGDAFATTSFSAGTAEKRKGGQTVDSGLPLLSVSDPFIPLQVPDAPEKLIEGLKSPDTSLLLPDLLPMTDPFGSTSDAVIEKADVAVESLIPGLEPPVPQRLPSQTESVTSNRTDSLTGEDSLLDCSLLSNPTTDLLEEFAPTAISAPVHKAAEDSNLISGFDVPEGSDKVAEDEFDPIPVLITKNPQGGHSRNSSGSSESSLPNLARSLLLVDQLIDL
PIM2, sequence (Q9P1W9 whole entry): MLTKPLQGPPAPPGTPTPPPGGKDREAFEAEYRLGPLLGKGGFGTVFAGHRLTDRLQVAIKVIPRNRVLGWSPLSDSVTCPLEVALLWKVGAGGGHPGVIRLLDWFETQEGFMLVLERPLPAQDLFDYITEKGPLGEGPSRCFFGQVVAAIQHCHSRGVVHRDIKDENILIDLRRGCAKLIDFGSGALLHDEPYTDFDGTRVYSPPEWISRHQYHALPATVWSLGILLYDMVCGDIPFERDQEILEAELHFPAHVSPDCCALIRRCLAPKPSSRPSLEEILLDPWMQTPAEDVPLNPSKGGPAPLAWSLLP
CABC1, sequence (Q8NI60 whole entry): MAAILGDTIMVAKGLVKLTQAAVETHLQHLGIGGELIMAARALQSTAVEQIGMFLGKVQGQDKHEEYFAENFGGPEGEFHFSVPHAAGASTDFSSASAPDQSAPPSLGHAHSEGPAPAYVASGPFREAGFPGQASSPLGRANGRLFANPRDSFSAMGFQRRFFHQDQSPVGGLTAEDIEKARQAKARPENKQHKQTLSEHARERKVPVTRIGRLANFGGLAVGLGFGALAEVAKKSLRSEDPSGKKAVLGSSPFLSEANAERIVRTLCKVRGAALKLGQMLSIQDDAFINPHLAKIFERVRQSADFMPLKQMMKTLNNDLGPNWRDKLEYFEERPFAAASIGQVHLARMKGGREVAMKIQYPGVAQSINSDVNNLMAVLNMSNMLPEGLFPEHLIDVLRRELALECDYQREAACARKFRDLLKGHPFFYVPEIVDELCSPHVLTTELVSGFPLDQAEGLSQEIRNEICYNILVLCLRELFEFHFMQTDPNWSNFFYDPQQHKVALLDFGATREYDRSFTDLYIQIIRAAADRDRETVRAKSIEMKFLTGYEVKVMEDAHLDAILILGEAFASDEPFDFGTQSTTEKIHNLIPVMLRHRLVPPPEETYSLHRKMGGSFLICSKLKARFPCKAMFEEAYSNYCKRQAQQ
BUB1, sequence (O43683 whole entry): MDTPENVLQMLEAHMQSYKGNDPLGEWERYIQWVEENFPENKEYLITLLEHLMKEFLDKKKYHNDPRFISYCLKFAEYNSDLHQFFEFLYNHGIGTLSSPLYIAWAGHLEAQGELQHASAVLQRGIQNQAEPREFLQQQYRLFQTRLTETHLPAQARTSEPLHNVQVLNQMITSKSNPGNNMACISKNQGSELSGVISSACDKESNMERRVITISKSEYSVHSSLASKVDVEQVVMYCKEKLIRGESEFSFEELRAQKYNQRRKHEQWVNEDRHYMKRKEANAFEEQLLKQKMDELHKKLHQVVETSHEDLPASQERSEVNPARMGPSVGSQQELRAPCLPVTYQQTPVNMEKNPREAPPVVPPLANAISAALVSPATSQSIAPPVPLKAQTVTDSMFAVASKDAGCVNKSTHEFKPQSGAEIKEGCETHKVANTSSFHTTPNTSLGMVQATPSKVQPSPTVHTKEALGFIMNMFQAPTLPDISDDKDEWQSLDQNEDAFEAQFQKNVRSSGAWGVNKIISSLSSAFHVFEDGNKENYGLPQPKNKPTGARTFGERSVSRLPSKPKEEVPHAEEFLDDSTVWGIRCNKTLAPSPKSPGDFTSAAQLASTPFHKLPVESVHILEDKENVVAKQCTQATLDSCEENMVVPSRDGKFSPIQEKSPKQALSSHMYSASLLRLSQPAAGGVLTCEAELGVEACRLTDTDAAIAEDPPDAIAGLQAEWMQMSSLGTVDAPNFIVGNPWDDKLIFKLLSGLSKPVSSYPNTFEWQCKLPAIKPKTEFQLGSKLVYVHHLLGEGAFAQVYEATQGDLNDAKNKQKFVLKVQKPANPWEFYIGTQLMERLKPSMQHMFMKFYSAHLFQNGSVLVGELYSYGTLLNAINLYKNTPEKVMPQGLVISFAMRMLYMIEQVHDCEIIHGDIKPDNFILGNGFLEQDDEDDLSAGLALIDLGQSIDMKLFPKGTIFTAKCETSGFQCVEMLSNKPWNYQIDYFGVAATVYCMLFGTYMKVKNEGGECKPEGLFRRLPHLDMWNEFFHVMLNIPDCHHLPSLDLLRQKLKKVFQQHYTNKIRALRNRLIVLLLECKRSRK

For `CN1CCN(c2ccc(Nc3ncc(C#N)c(Nc4ccccc4C(N)=O)n3)cc2)CC1.Cl` [TCMDC-134116], the IC50 against PIM2 was 4800 nM; against MAP3K2, 490 nM; at AXL it was 500 nM and 550 nM; at CABC1, more than 20000 nM; against DYRK1A, 490 nM and 450 nM; on AAK1, 190 nM. Also, the half-maximal inhibitory concentration (IC50) was 2000 nM and 1100 nM against MAP3K7; 370 nM and 320 nM on BUB1; ≤ 32 nM and 52 nM at AURKA.
With `Cl.NCC1(c2nc(-c3ccc(Cl)c(O)c3)c(-c3ccncc3)[nH]2)CCCCC1` [TCMDC-141154], the half-inhibitory concentration (IC50) against PIM2 was more than 20000 nM; at MAP3K2, 1200 nM; against AXL, more than 20000 nM; at CABC1, more than 20000 nM; against DYRK1A, more than 20000 nM; at AAK1 it was more than 20000 nM. Also, the IC50 on MAP3K7 is more than 20000 nM; on BUB1 it was 240 nM and 170 nM; against AURKA, more than 20000 nM.
`CN(C)CC(O)COc1ccc(Nc2ncc([N+](=O)[O-])c(Nc3ccccc3O)n2)cc1.O=C(O)C(F)(F)F` (stereo not drawn) [TCMDC-141399]: the IC50 against PIM2 was more than 20000 nM; against MAP3K2 it was more than 20000 nM; against AXL, more than 20000 nM; against CABC1, more than 20000 nM; on DYRK1A, 4900 nM; against AAK1, more than 20000 nM. In addition, the 50% inhibitory concentration (IC50) on MAP3K7, against BUB1 and against AURKA was more than 20000 nM each time.
